For 21 molecules, EC50 results are on record in patent US20240217990A1 (Gilead Sciences, Inc., priority 2021, published 2024).

pEC50: −log10 of the molar value.

For experiment [1], the target named is T1, TLR8 (Homo sapiens, UniProt Q9NR97).
T1 construct: Human peripheral blood mononuclear cells (PBMCs) consist of lymphocytes, monocytes and dendritic cells that express TLR7, TLR8 and TLR9; endogenous in cells; host or cells: cryopreserved human PBMCs from healthy donors
T1 sequence (Q9NR97 27-1041): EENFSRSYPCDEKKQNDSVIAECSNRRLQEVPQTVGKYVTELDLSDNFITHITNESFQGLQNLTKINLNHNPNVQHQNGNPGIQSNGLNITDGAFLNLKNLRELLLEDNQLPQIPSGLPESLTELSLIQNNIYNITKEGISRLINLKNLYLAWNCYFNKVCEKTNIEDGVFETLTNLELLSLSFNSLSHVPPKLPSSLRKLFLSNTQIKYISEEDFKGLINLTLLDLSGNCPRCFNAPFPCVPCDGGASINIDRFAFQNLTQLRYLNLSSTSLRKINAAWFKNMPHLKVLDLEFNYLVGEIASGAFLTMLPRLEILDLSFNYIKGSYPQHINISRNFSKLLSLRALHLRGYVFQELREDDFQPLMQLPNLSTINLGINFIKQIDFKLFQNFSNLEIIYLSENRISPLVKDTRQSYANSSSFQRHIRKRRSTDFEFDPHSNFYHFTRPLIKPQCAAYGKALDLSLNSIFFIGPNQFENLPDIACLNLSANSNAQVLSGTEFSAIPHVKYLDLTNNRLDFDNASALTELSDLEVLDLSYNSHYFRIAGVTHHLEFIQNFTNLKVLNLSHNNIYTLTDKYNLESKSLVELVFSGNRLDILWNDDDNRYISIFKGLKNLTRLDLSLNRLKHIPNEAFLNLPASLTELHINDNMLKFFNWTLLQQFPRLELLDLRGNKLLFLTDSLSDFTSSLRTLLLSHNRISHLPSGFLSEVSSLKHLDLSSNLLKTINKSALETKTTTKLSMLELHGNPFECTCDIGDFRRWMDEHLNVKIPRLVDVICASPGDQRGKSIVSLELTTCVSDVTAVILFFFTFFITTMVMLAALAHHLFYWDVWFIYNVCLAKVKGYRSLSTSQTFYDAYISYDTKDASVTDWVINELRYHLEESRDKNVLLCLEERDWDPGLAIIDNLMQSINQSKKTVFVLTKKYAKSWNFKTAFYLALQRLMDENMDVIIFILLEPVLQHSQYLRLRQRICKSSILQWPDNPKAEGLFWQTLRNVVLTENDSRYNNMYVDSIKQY
Nature of the experiment: TLR8 human PBMC cell-based assay (antagonist, Compound A stimulated cytokine release). The note with it: human PBMCs; TLR8 agonist Compound A 800 nM, 6 hours; cytokines (TNFa and IL 12p40) in supernatant; read-out: TLR-8 EC50. In short, it runs like this:
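Cryopreserved donor PBMCs (100,000/well, RPMI + 10% FBS) were preincubated 1 h with antagonist (10-point dose response, quadruplicate), then stimulated with Compound A (800 nM final) for 6 h at 37 °C. TNFa and IL-12p40 in supernatants were measured by electrochemiluminescence; sigmoidal fits gave EC50.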

For experiment [2], the target named is T2, TLR7 (Homo sapiens, UniProt Q9NYK1).
T2 construct: Human peripheral blood mononuclear cells (PBMCs) consist of lymphocytes, monocytes and dendritic cells that express TLR7, TLR8 and TLR9; endogenous in cells; host or cells: cryopreserved human PBMCs from healthy donors
T2 sequence (Q9NYK1 27-1049): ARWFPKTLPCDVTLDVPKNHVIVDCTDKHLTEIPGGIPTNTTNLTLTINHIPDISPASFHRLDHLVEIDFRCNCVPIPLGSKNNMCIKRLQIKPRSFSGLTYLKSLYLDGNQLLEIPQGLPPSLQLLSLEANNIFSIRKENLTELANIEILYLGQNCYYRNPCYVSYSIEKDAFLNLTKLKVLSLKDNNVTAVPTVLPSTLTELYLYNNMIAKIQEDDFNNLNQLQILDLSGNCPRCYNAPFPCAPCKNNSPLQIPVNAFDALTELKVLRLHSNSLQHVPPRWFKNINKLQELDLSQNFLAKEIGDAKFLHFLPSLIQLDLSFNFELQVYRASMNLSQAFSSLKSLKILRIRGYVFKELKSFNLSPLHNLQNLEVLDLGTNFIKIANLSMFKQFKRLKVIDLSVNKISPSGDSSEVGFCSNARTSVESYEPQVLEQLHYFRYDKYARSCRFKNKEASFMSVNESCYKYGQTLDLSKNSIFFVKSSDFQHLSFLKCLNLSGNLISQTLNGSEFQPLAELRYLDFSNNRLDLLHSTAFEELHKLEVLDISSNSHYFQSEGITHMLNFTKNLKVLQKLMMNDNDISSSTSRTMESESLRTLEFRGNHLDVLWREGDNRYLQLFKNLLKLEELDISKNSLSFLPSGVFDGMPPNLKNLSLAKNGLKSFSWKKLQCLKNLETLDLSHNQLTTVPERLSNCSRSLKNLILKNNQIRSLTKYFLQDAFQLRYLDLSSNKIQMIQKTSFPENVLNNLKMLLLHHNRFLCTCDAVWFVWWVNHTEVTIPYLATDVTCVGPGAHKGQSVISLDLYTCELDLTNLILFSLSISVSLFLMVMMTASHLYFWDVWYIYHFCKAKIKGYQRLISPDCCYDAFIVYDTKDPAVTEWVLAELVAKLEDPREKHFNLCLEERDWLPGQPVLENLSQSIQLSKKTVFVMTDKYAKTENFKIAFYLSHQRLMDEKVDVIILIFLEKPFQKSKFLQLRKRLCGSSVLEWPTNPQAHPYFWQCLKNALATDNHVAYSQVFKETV
Nature of the experiment: TLR7 human PBMC cell-based assay (antagonist, GS-986 stimulated cytokine release). The note with it: human PBMCs; TLR7 agonist GS-986 400 nM, 6 hours; cytokines (IL-6 and IFNα) in supernatant; read-out: TLR-7 EC50. In short, it runs like this: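 EC50 derived by sigmoidal fitting of IL-6 and IFNα levels, quantified by electrochemiluminescence in supernatants of human PBMCs given 400 nM GS-986 for 6 h. Cells (100,000/well in RPMI-1640, 10% FBS) had received test antagonist 1 h beforehand, 10 doses in quadruplicate, at 37 °C.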

Regarding `Cc1cc(-c2[nH]c3cc(C(=O)N4C[C@H](N)[C@@H]5CC[C@H]4C5)sc3c2C(C)C)cn2ncnc12` [Example 91], the pEC50 (commonly −log10 of the EC50, conventionally taken in molar units) was 7.91 in experiment [1] and 8.52 in experiment [2].

Turning to `Cc1cc(-c2[nH]c3cc(C(=O)N(C)C4CCNCC4(C)C)sc3c2C(C)C)cn2ncnc12` (stereo not drawn) [Example 92], the pEC50 was 7.64 in experiment [1] and 9.70 in experiment [2].

Take `Cc1cc(-c2[nH]c3cc(C(=O)N4CCC[C@@H]5NCC[C@@H]54)sc3c2C(C)C)cn2ncnc12` [Example 93]: the pEC50 in experiment [1] is 7.70; in experiment [2], 9.22.

Regarding `Cc1cc(-c2[nH]c3cc(C(=O)N(C)CCCN(C)C)sc3c2C(C)C)cn2ncnc12` [Example 94], the pEC50 in experiment [1] was 8.33; in experiment [2] it was 9.00.

For the molecule `Cc1cc(-c2[nH]c3cc(C(=O)N(C)CCN4CCOCC4)sc3c2C(C)C)cn2ncnc12` [Example 95], the negative logarithm of the EC50 (pEC50) in experiment [1] was 7.46; in experiment [2], 7.34.

For the molecule `Cc1cc(-c2[nH]c3cc(C(=O)N4C[C@@H](N)CC[C@H]4C)sc3c2C(C)C)cn2ncnc12` [Example 96], the pEC50 in experiment [1] is 7.59; in experiment [2], 9.52.

Regarding `Cc1cc(-c2[nH]c3cc(C(=O)N4CCC[C@H]4CN4CCCC4)sc3c2C(C)C)cn2ncnc12` [Example 97], the results for the pEC50 in experiment [1] and in experiment [2] were 7.49 and 7.89, respectively.

As to `Cc1cc(-c2[nH]c3cc(C(=O)N(CCN(C)C)C4CCCC4)sc3c2C(C)C)cn2ncnc12` [Example 98], the results for the pEC50 in experiment [1] and in experiment [2] were 7.76 and 7.84, respectively.

Consider `Cc1cc(-c2[nH]c3cc(C(=O)N(C)CCN4CCCC4)sc3c2C(C)C)cn2ncnc12` [Example 99], for which the figures for the pEC50 in experiment [1] and in experiment [2] were 7.94 and 8.39, respectively.

Take `Cc1cc(-c2[nH]c3cc(C(=O)N(C)CCN(C)C4CC4)sc3c2C(C)C)cn2ncnc12` [Example 100]: the values for the pEC50 in experiment [1] and in experiment [2] were 7.65 and 8.02, respectively.

With `Cc1cc(-c2[nH]c3cc(C(=O)N4C[C@@H](N)CC[C@@H]4C)sc3c2C(C)C)cn2ncnc12` [Example 101], the pEC50 in experiment [1] was 7.10; in experiment [2], 8.66.

For the molecule `Cc1cc(-c2[nH]c3cc(C(=O)N4CCC[C@H]4CN(C)C)sc3c2C(C)C)cn2ncnc12` [Example 103], the negative-log EC50 (pEC50) in experiment [1] was 7.67; in experiment [2] it was 7.95.

With `Cc1cc(-c2[nH]c3cc(C(=O)N4CCC[C@@H]4CN(C)C)sc3c2C(C)C)cn2ncnc12` [Example 104], the pEC50 was 7.97 in experiment [1] and 8.11 in experiment [2].

On to `Cc1cc(-c2[nH]c3cc(C(=O)N4CC[C@H](C)[C@H](N)C4)sc3c2C(C)C)cn2ncnc12` [Example 105], for which the results for the pEC50 in experiment [1] and in experiment [2] were 7.79 and 8.34, respectively.

On to `Cc1cc(-c2[nH]c3cc(C(=O)N4CCCCC4CN(C)C)sc3c2C(C)C)cn2ncnc12` (stereo not drawn) [Example 107], for which the figures for the pEC50 in experiment [1] and in experiment [2] were 7.89 and 8.41, respectively.

With `Cc1cc(-c2[nH]c3cc(C(=O)N4CCC[C@H]5NCC[C@H]54)sc3c2C(C)C)cn2ncnc12` [Example 108], the pEC50 in experiment [1] is 8.55; in experiment [2], 9.22.

Take `Cc1cc(-c2[nH]c3cc(C(=O)N4CCCC5CNCC54)sc3c2C(C)C)cn2ncnc12` (stereo not drawn) [Example 109]: the pEC50 in experiment [1] was 7.74; in experiment [2], 8.85.

On to `Cc1cc(-c2[nH]c3cc(C(=O)N4CCC[C@H]5NCCC[C@H]54)sc3c2C(C)C)cn2ncnc12` [Example 110], for which the figures for the pEC50 in experiment [1] and in experiment [2] were 9.10 and 10.00, respectively.

Take `Cc1cc(-c2[nH]c3cc(C(=O)N4CCCC(CN)C4)sc3c2C(C)C)cn2ncnc12` (stereo not drawn) [Example 111]: the pEC50 in experiment [1] is 8.14; in experiment [2], 8.82.

As to `Cc1cc(-c2[nH]c3cc(C(=O)N4CCCC(CN(C)C)C4)sc3c2C(C)C)cn2ncnc12` (stereo not drawn) [Example 112], the pEC50 in experiment [1] is 8.19; in experiment [2], 8.54.

As to `Cc1cc(-c2[nH]c3cc(C(=O)N(C)CC4CCNCC4)sc3c2C(C)C)cn2ncnc12` [Example 113], the values for the negative-log EC50 (pEC50) in experiment [1] and in experiment [2] were 7.26 and 8.43, respectively.
